Laboratory results published in patent US12492236B2, “Fusion proteins for the treatment of cardiometabolic diseases” (Shattuck Labs, Inc., priority 2022, dated 2025).
Entries after “also recorded” stand apart in the source; their conditions may differ. Where no end group is shown, it is not given here.

Experiments:
[1] = target: T1, GIP receptor (GIPR) (Rattus norvegicus, UniProt P43219); assay: cAMP-Glo assay in rat insulinoma INS-1 cells harboring a cAMP-luciferase reporter gene; assay type: cell-based; conditions: 1 hour glucose, then 2 hour incubation, FIG. 4A
T1 construct: endogenous in cells; host or cells: rat INS-1 insulinoma cells (with cAMP-luciferase reporter / pGloSensor-22F biosensor)
T1 sequence (P43219 19-455): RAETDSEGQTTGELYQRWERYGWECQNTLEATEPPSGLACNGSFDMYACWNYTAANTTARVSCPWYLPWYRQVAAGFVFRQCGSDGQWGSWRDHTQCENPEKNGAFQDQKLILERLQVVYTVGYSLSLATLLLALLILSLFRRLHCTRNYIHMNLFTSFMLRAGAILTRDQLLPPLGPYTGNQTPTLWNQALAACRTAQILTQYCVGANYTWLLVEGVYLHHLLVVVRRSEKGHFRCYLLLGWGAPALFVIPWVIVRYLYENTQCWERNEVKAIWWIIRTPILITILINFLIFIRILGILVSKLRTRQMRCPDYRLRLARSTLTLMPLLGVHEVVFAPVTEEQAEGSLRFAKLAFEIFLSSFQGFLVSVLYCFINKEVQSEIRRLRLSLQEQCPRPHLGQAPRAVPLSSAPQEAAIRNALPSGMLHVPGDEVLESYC
Source text: Rat insulinoma INS-1 cells harboring a cAMP-luciferase reporter gene were used to study the activation of GIPR. Without wishing to be bound by theory, the activation of GIPR leads to temporary depletion of ATP because of consumption of ATP in cyclization reaction to produce cAMP as well as by phosphorylation by protein kinase A of its substrate. Without wishing to be bound by theory, the temporary depletion of ATP leads to an inhibition of luciferase activity, which needs ATP as a substrate.

[2] = target: T2, glucose-dependent insulinotropic polypeptide receptor (GIPR) (Homo sapiens, UniProt P48546); assay: GeneBLAzer GIPR-CRE-bla HEK293T cell-based reporter assay; conditions: increasing amounts, FIG. 3B
T2 construct: host or cells: HEK293T (GeneBLAzer GIPR-CRE-bla)
T2 sequence (P48546 22-466): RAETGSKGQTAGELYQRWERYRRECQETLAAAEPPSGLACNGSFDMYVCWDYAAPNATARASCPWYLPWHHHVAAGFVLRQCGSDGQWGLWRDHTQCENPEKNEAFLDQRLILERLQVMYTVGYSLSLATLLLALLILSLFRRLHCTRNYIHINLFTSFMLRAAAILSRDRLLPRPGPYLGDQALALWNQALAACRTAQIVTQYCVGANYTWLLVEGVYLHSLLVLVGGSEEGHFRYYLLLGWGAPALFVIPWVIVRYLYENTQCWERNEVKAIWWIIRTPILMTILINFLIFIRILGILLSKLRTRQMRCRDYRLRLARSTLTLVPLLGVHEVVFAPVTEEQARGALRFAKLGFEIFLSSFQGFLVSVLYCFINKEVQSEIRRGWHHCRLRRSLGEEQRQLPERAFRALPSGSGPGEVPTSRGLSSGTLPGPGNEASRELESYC
Procedure: This assay is diagrammatically represented in FIG. 3A. […] In the presence of the β-lactamase LiveBLAzer™ substrate, cells expressing β-lactamase fluoresce blue (460 nm), while those not expressing β-lactamase fluoresce green (530 nm); higher 460/530 ratio indicates the activation of GIPR.
Briefly, GeneBLAzer® GIPR-CRE-bla HEK293T cells were added to wells of black-wall assay plates. […] To each well, LiverBLAzer-FRET B/G substrate mixture was added. The plate was covered with plate sealer and incubated at room temperature for 2 hours in the dark. Fluorescence emission was measured on SpectraMax plate reader at 460 nm and 530 nm with excitation set to 409 nm. After subtraction of background, average value at 460 nm (blue color) was divided by average value at 530 nm (green color) to obtain the 460/530 ratio.

[3] = tested on: HFD-fed mice (Male C57BL/6); assay: glucose tolerance test (GTT) model in HFD-fed mice; assay type: in vivo; conditions: for serum insulin time course following glucose administration: FIG. 7C; for serum glucose time course following glucose administration: i.v. treatment, 18 hours fast, 2 g/kg glucose, versus PBS control (200 to about 800 mg/dl), FIG. 7A
Procedure: Cages were changed once, then changed once a week.
The mice administered the above treatment by i.v. injections. The mice were then fasted for 18 hours and administered a dose of 2 g/kg glucose by i.v. injections. Blood samples were drawn by tail clip bleeding at 15, 30 and 60 minutes post dosing and cardiac bleeding was used at 2 hours after glucose injection as end-point.

[4] = tested on: HFD-fed mice (Male C57BL/6); assay: longer-term obesity model in HFD-fed mice; conditions: for blood glucose levels: Days 0, 1, 10 and 15, compared to the untreated mice, FIG. 8E; for liver histology: hepatocellular ballooning and steatosis: H&E; for average daily food intake: compared to the untreated mice, FIG. 8D; for liver weight: livers of PBS control mice versus treated mice / subcutaneous white adipose tissue (sWAT) weight: day 19 necropsy; for liver weight: livers of PBS control mice versus treated mice: FIG. 8G; for subcutaneous white adipose tissue (sWAT) weight: versus PBS control, FIG. 8H; for plasma insulin levels on Day 15: one way ANOVA p<0.0001, FIG. 8C right panel; for change in body weight: tail vein dosing Day 0, 4, 7, 10, 14, 18, FIG. 8A; for plasma insulin levels on Day 1: between 15 and 120 minutes after treatment, one way ANOVA p<0.05, FIG. 8C left panel; for tolerability: obesity model
Source text: Briefly, mice (Male C57BL/6) were of approximately 13 weeks of age were housed 4 mice per cage. Following 2 weeks of acclimation, mice were introduced to 60% kcal HFD (Research Diets D12492). Cages were changed once, then changed once a week. Weekly body weights and non-fasted blood glucose were collected. […] The longer-term obesity model assesses a number of end points associated with obesity related type 2 diabetes (FIG. 6A).
Mice (Male C57BL/6) were of approximately 13 weeks of age were housed 4 mice per cage. Following 2 weeks of acclimatation, mice were introduced to 60% kcal HFD (Research Diets D12492). Cages were changed once, then changed once a week. Weekly body weights and non-fasted blood glucose were collected.
Mice were injected by tail vein with vehicle or the drugs on Day 0, Day 4, Day 7, Day 10, Day 14, and Day 18. Body weights were measured every 2 days. Change in body weight was calculated and plotted.
Cumulative food intake was measured between day 0 and 3, between day 4 and 7, between day 7 and day 11, and between day 11 and day 14, and represented as average daily food intake. For food consumption, remaining food was weighed on days 3, 8, and 15, and subtracted from the starting weight. This value was then normalized to the number of mice in the cage, and the number of days the mice had access to the food prior to weighing.
Blood glucose levels were measured on Days 0, 1, 10 and 15 and plotted.
On day 19 during terminal necropsy, liver and subcutaneous white adipose tissue were recovered weighed from treated animals.
To further analyze the changes in liver, histopathological analysis was conducted. Briefly, the liver tissue was stained with hematoxylin and eosin (H&E) and evaluated using standard techniques.

[5] = target: T3, GIPR (Rattus norvegicus, UniProt P43219); assay: pGloSensor-22F cAMP biosensor assay for GIPR agonism and antagonism in rat INS-1 cells; assay type: cell-based; set-up: dose or concentration left out as unconfirmed; conditions: mixed with GIP(Ag)
T3 construct: endogenous in cells; host or cells: rat INS-1 insulinoma cells (with cAMP-luciferase reporter / pGloSensor-22F biosensor)
T3 sequence (P43219 19-455): T1 sequence (P43219 19-455)
Procedure: A series of GIP antagonist peptides were evaluated at blocking human GIP (hGIP) agonism and the induction of cAMP. Briefly, rat INS-1 cells having pGloSensor-22F (Promega) were constructed and used to evaluate GIPR agonism and antagonism. […] The conformational change leads to the activation of the luciferase enzyme, thereby allowing detection of activation of GIPR, which produces cAMP upon activation.
To assay for GIPR agonism, rat INS-1 cells having pGloSensor-22F biosensor were treated with increasing concentrations of GIP(Ag). Immediately after the addition, the luminescence of the cells was measured, normalized using the basal luminescence and plotted.
GIPR antagonism was measured as the inhibition of GIP(Ag)-induced activation of the cAMP-luciferase reporter gene in rat INS-1 cells having pGloSensor-22F biosensor. The following GIP derivatives accessed in this assay for GIPR antagonism: GIP(Ant 3-30), GIP(Ant 3-30NH2), (GIP(Ant 3-30) having amidated carboxy terminus), GIP(AntPro3), GIP(AntPro3NH2), GIP(Ant3-30, Pro3) and GIP(Ant3-30, Pro3NH2). Briefly, rat INS-1 cells having pGloSensor-22F were treated with increasing doses of the above various GIP derivatives, mixed with […] GIP(Ag). Immediately after the addition, the luminescence of the cells was measured, normalized using the basal luminescence and plotted.
The GIP(Ag) was re-evaluated across a broader concentration range. Rat INS-1 cells having pGloSensor-22F biosensor were treated with increasing concentrations of GIP(Ag). Immediately after the addition, the luminescence of the cells was measured, normalized using the basal luminescence and plotted.
The GIP(AntPro3) and GIP(AntPro3NH2) were re-evaluated across a broader concentration range. Briefly, rat INS-1 cells having pGloSensor-22F were treated with increasing doses of GIP(AntPro3) and GIP(AntPro3NH2), mixed with […] GIP(Ag). Immediately after the addition, the luminescence of the cells was measured, normalized using the basal luminescence and plotted.

[6] = broader concentration range, FIG. 5B

Row | Substance | inhibition of luciferase (GIPR activation, cAMP accumulation) [1] | 460/530 ratio, indicative of the activation of GIPR [2] | serum insulin time course following glucose administration [3] | serum glucose time course following glucose administration [3] | blood glucose levels [4] | liver histology: hepatocellular ballooning and steatosis ([4]; FIG. 8J) | liver histology: hepatocellular ballooning and steatosis ([4]; higher magnifications, compared to untreated animals, FIG. 8K) | average daily food intake [4] | liver weight: livers of PBS control mice versus treated mice [4] | subcutaneous white adipose tissue (sWAT) weight [4] | plasma insulin levels on Day 15 [4] | liver collagen staining (fibrosis) ([4]; picrosirius red, FIG. 8I) | change in body weight [4] | glucose tolerance ([3]; summary of GTT model) | weights of individual mice ([4]; FIG. 8B) | plasma insulin levels on Day 1 [4] | tolerability [4] | decrease in liver collagen staining relative to tirzepatide or dulaglutide ([4]; picrosirius red, FIG. 8I) | inhibition of GIP(Ag)-induced activation of the cAMP-luciferase reporter gene (GIPR antagonism) [5, 6] | inhibition of GIP(Ag)-induced activation of the cAMP-luciferase reporter gene (GIPR antagonism) ([5]; FIG. 5A)
1 | tirzepatide [reference compound] | dose-dependent and saturable inhibition of luciferase with similar potency | dose-dependent and saturable increase in 460/530 ratio | rapid induction of insulin | much smaller increase in serum glucose | decrease in blood glucose | a decrease in hepatocellular ballooning and steatosis | significant decrease in hepatocellular ballooning and steatosis | decrease in food intake | much heavier compared to the mice receiving treatments | decreased | significant decrease in the levels of insulin | a decrease in collagen staining | progressive weight loss | – | – | – | – | – | – | –
2 | GLP-1-Fc-GIP(AntPro3): GLP-1 fused to GIP antagonist peptide (amino acids 1-42 having E3P mutation) via IgG1 hinge-CH2-CH3 Fc domain; SEQ ID NO: 95 | – | – | rapid induction of insulin | much smaller increase in serum glucose | decrease in blood glucose | a decrease in hepatocellular ballooning and steatosis | – | decrease in food intake | much heavier compared to the mice receiving treatments | decreased | significant decrease in the levels of insulin | a decrease in collagen staining | progressive weight loss | improved glucose tolerance | induced weight loss | rapid decrease in insulin levels | well tolerated and no overt toxicities were noted | greater decrease in collagen staining | – | –
3 | GIP(AntPro3): GIP antagonist peptide, SEQ ID NO: 97 (YAPGTFISDYSIAMDKIHQQDFVNWLLAQKGKKNDWKHNITQ) | – | – | – | – | – | – | – | – | – | – | – | – | – | – | – | – | – | – | dose-dependent inhibition of GIP(Ag)-induced activation | more potent inhibition of GIP agonist signaling than the others tested; also recorded: maximal level of a dose-dependent inhibition of GIP(Ag)-induced activation
4 | GIP(AntPro3NH2): GIP antagonist peptide GIP(AntPro3), presumably having amidated carboxy terminus (YAPGTFISDYSIAMDKIHQQDFVNWLLAQKGKKNDWKHNITQ-NH2) | – | – | – | – | – | – | – | – | – | – | – | – | – | – | – | – | – | – | dose-dependent inhibition of GIP(Ag)-induced activation | more potent inhibition of GIP agonist signaling than the others tested; also recorded: maximal level of a dose-dependent inhibition of GIP(Ag)-induced activation
5 | dulaglutide [reference compound] | – | – | – | – | decrease in blood glucose | a decrease in hepatocellular ballooning and steatosis | – | decrease in food intake | much heavier compared to the mice receiving treatments | decreased | significant decrease in the levels of insulin | a decrease in collagen staining | progressive weight loss | – | – | rapid decrease in insulin levels | well tolerated and no overt toxicities were noted | – | – | –
